Assay results reported in the supplement of paper PMC8882468.

How the values were obtained:
Experiment in all cases: CTG-3D luminescence at 96 h relative to day-0 seeding control (ratio to day 0); higher = more growth / less cytotoxicity; PDxO 3D drug screen, 96 h, CTG-3D normalised to day-0 seeding control.
HCI-011.E2 = test system: HCI-011.E2 (organoid from an ER-positive breast cancer xenograft)
HCI-012 = test system: HCI-012 (organoid from a breast cancer xenograft)
HCI-008 = test system: HCI-008 (organoid from a HER2-enriched breast cancer xenograft)
HCI-005.E2 = test system: HCI-005.E2 (organoid from a breast cancer xenograft with a HER2-positive history)
HCI-010 = test system: HCI-010 (organoid from a breast cancer xenograft)
HCI-015 = test system: HCI-015 (organoid from a triple-negative breast cancer xenograft)
HCI-019 = test system: HCI-019 (organoid from a triple-negative breast cancer xenograft)

CN(Cc1cnc2nc(N)nc(N)c2n1)c1ccc(C(=O)N[C@@H](CCC(=O)O)C(=O)O)cc1 [methotrexate]
CTG-3D luminescence at 96 h
Settings	12.5 pM	0.00025 µM	0.005 µM	0.1 µM	1 µM	10 µM	100 µM	625 fM
HCI-005.E2	2.09	1.81	1.86	1.02	0.572	0.678	0.678	2.1
HCI-011.E2	1.46	1.77	1.44	1.83	1.62	2.08	2.21	1.59

CTG-3D luminescence at 96 h
Settings	12.5 pM	0.00025 µM	0.005 µM	0.1 µM	1 µM	10 µM	100 µM	625 fM
HCI-008, days in culture: 228	1.82	1.9	1.53	1.98	1.97	1.82	1.2	2.01
HCI-008, days in culture: 244	1.4	1.83	1.93	2.13	1.59	1.93	1.66	2.31
HCI-010, days in culture: 52	2.12	2.41	2.51	2.48	2.58	2.52	2.52	2.58
HCI-010, days in culture: 65	1.6	1.77	1.79	1.86	1.86	1.72	1.46	1.8
HCI-010, days in culture: 103	3.42	3.7	4.03	2.39	2.36	2.1	1.84	3.19
HCI-011.E2, days in culture: 74	1.97	2.4	1.99	2.27	2.49	3.6	2.24	2.17
HCI-012, days in culture: 143	2.07	1.83	2.09	1.37	1.4	1.33	1.51	2.07
HCI-012, days in culture: 162	2.66	2.5	2.06	1.69	1.04	1.12	1.06	2.7
HCI-012, days in culture: 201	2.49	2.01	1.57	0.935	1.44	0.611	1.21	1.49
HCI-015, days in culture: 172	2.51	2.28	2.36	1.31	1.55	1.13	1.06	2.55
HCI-015, days in culture: 191	1.94	1.41	1.62	1.1	1.23	0.977	0.939	1.36
HCI-015, days in culture: 218	1.75	1.57	1.63	1.69	1.48	1.63	1.21	1.79
HCI-019, days in culture: 110	2.05	1.69	1.69	1.92	1.17	1.54	1.35	2.13
HCI-019, days in culture: 131	2.79	3.21	2.83	2.59	2.04	2.25	2.11	3.85
HCI-019, days in culture: 152	2.67	2.23	2.89	2.1	2.27	2.28	2.16	2.17

COc1cccc2c1C(=O)c1c(O)c3c(c(O)c1C2=O)C[C@@](O)(C(=O)CO)C[C@@H]3O[C@H]1C[C@H](N)[C@H](O)[C@H](C)O1 [doxorubicin]
CTG-3D luminescence at 96 h
Settings	12.5 pM	0.00025 µM	0.005 µM	0.1 µM	1 µM	10 µM	100 µM	625 fM
HCI-005.E2	1.5	1.93	1.21	1.07	0.557	-0.00289	-0.00667	1.71
HCI-011.E2	1.59	1.65	1.4	1.98	1.42	0.122	0.0255	1.6

CTG-3D luminescence at 96 h
Settings	12.5 pM	0.00025 µM	0.005 µM	0.1 µM	1 µM	10 µM	100 µM	625 fM
HCI-008, days in culture: 228	1.33	1.91	1.48	1.51	0.743	0.19	0.0571	1.87
HCI-008, days in culture: 244	1.19	1.9	1.52	2.09	0.849	0.198	0.0903	2.37
HCI-010, days in culture: 52	2.23	2.37	2.52	1.93	0.497	0.271	0.0478	2.26
HCI-010, days in culture: 65	1.7	1.65	1.8	1.3	0.324	0.288	-0.000428	1.65
HCI-010, days in culture: 103	3.64	3.76	3.69	2.37	0.535	0.804	0.0524	3.28
HCI-011.E2, days in culture: 74	2.69	1.99	2.17	2.07	1.65	0.129	0.0309	2.14
HCI-012, days in culture: 143	1.78	1.93	1.8	0.35	0.0586	-0.00257	-0.0149	1.91
HCI-012, days in culture: 162	2.15	2.16	2.04	0.961	0.0655	0.00235	-0.0139	3.15
HCI-012, days in culture: 201	2.84	1.58	1.7	0.408	0.0363	0.000335	-0.0192	1.33
HCI-015, days in culture: 172	2.4	1.39	2.21	0.657	0.0852	0.0438	0.0135	2.35
HCI-015, days in culture: 191	2.38	1.36	1.43	0.382	0.0711	0.0286	0.019	1.61
HCI-015, days in culture: 218	1.76	1.38	1.98	0.575	0.0701	0.0582	0.0222	1.86
HCI-019, days in culture: 110	1.69	1.56	1.49	1.03	0.296	0.00454	-0.00853	1.91
HCI-019, days in culture: 131	3.03	3.8	2.31	1.47	0.314	0.00725	-0.0127	4.1
HCI-019, days in culture: 152	3.43	3.12	2.32	1.57	0.409	0.00363	-0.00918	2.03
